Laboratory results taken from patent US20240025900A1, “TETRACYCLIC COMPOUNDS AS DGK INHIBITORS” (Incyte Corporation, priority 2022, published 2024).

Key:
DGKα = DGKα (Homo sapiens (Human), UniProt P23743); experiment: In vitro DGKα inhibition assay (ADP-Glo); assay type: biochemical; details: His-tagged human recombinant DGKα 0.1 nM, 50 μM ATP, 20 μM DLG
Description: (§1) The DGKα and DGKζ biochemical reactions were performed using His-tagged human recombinant enzymes (Signal Chem, DGKα, #D21-10BH; DGKζ, #D30-10H)) and DLG (Dilauroyl-sn-glycerol) lipid substrate (Signal Chem, #D430-59). ADP-Glo assay was performed using ADP-Glo™ kinase Assay kit (Promega, #V9104). The reactions were carried out in assay buffer containing 40 mM Tris, pH 7.5, 0.1% CHAPS, 0.1% Prionex, 40 mM NaCl, 5 mM MgCl2, 1 mM CaCl2, and 1 mM DTT. DGKα reactions contained 0.1 nM DGKα, 50 μM ATP, and 20 μM DLG. And DGKζ reactions contained 0.4 nM DGKζ, 30 μM ATP, and 20 μM DLG.
(§2) For compound inhibition studies, 40 nL test compound in DMSO was added to wells of white polystyrene plates in 384-well (Greiner, #784075) or 1536-well format (Greiner, #782075). Compounds were added with top concentration of 2 mM with 11 point, 3-fold dilution series. Enzyme solution (contains 2×DGK enzyme concentration in 1× assay buffer) was added to the plate in 2 μL/well volume, followed by 2 μL/well of substrate solution (contains 2×concentration of ATP and DLG substrate in 1× assay buffer). Plates were then centrifuged for 1 min at 1200 RPM and sealed or lidded. For 4 μL reaction volume, test compounds were therefore diluted 100× to final top concentration of 20 μM. After 90 minute incubation, reactions were quenched by addition of 2 μL/well Promega ADP-Glo Reagent, followed by centrifugation and lidding. After 60 min incubation, 2 μL/well Promega Kinase Detection Reagent was added, plates centrifuged, and incubated for 30 min. Plates were then read using Luminescence method on BMG PHERAstar FSX plate reader. Percent inhibition was calculated and IC50s were determined using 4-parameter fit in Genedata Screener. Labcyte Echo acoustic dispenser was used for compound addition, and Formulatrix Tempest liquid handler was used for all reagent dispenses.

DGKζ = DGKζ (Homo sapiens (Human), UniProt Q13574); experiment: In vitro DGKζ inhibition assay (ADP-Glo); assay type: biochemical; details: His-tagged human recombinant DGKζ 0.4 nM, 30 μM ATP, 20 μM DLG
Sequence of DGKζ (Q13574 whole entry): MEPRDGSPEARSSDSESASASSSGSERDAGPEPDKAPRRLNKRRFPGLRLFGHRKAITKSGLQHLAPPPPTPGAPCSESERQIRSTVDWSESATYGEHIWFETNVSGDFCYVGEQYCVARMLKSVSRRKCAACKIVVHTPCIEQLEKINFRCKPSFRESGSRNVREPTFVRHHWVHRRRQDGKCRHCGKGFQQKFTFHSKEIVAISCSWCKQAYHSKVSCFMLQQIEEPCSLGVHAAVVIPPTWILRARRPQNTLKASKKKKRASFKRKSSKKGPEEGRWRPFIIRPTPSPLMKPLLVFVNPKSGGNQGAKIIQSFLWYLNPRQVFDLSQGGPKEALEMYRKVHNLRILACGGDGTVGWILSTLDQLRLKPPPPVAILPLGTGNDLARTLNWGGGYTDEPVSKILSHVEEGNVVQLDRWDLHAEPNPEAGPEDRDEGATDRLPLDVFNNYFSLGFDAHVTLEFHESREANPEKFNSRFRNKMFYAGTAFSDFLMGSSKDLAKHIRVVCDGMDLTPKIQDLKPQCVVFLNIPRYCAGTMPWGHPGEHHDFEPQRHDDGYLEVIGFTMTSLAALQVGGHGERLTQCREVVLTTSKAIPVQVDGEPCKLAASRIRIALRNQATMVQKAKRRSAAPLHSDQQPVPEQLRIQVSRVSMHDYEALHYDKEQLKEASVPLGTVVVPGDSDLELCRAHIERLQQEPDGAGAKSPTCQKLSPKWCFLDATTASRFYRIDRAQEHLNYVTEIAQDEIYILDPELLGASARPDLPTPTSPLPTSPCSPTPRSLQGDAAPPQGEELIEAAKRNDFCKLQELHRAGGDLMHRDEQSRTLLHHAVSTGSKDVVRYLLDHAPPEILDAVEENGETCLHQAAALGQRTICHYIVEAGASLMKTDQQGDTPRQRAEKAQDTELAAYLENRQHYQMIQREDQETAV
Description: as §1, §2

Sequence of DGKα (P23743 whole entry): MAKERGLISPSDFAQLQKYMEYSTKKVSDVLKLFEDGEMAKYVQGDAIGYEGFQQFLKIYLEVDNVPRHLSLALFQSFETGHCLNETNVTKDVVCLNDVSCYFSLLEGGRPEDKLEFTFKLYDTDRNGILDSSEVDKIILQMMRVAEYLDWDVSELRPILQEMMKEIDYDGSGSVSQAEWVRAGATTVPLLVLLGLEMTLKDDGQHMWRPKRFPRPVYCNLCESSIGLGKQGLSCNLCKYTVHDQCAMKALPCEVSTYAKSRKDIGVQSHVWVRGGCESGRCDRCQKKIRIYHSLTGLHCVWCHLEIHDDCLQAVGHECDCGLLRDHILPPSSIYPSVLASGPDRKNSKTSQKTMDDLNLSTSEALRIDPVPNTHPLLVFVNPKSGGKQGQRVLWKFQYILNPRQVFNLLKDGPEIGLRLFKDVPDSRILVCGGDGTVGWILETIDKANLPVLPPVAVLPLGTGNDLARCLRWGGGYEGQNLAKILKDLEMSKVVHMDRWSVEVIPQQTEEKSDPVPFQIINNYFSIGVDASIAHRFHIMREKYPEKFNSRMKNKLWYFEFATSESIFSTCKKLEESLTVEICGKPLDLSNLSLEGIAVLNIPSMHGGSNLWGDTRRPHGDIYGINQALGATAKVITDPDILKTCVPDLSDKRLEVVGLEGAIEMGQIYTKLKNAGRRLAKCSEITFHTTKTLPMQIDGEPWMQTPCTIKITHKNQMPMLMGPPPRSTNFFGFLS

IC50 (DGKα) [nM]	IC50 (DGKζ) [nM]	Compound
≤ 40	200 to 2000	CN1C(=O)CC2CN(C(c3ccc(F)cc3)c3ccc(F)cc3)CCN2c2c1c(=O)n(C)c1ccc(C#N)nc21 (single isomer, unassigned) [Example 1, 11-(Bis(4-fluorophenyl)methyl)-5,7-dimethyl-6,8-dioxo-5,6,7,8,9,9a,10,11,12,13-decahydropyrazino[1′,2′: 4,5][1,4]diazepino[2,3-c][1,5]naphthyridine-2-carbonitrile]
40 to 200	≤ 40	CN1C(=O)CC2CN(C(c3ccc(F)cc3)c3ccc(F)cc3)CCN2c2c1c(=O)n(C)c1ccc(C#N)nc21 (single isomer, unassigned) [Example 2, 11-(Bis(4-fluorophenyl)methyl)-5,7-dimethyl-6,8-dioxo-5,6,7,8,9,9a,10,11,12,13-decahydropyrazino[1′,2′: 4,5][1,4]diazepino[2,3-c][1,5]naphthyridine-2-carbonitrile]
≤ 40	≤ 40	Cn1c(=O)c2c(c3nc(C#N)ccc31)N1CCN(C(c3ccc(F)cc3)c3ccc(F)cc3)C[C@@H]1COC2=O [Example 3, (R)-11-(Bis(4-fluorophenyl)methyl)-5-methyl-6,7-dioxo-5,7,9,9a,10,11,12,13-octahydro-6H-pyrazino[2′,1′:3,4][1,4]oxazepino[6,5-c][1,5]naphthyridine-2-carbonitrile]
≤ 40	≤ 40	Cn1c(=O)c2c(c3nc(CC#N)ccc31)N1CCN(C(c3ccc(F)cc3)c3ccc(F)cc3)C[C@@H]1COC2=O [Example 4, (R)-2-(11-(Bis(4-fluorophenyl)methyl)-5-methyl-6,7-dioxo-5,7,9,9a,10,11,12,13-octahydro-6H-pyrazino[2′,1′:3,4][1,4]oxazepino[6,5-c][1,5]naphthyridin-2-yl)acetonitrile]
40 to 200	40 to 200	Cn1c(=O)c2c(c3nc(CC#N)cnc31)N1CCN(C(c3ccc(F)cc3)c3ccc(F)cc3)C[C@@H]1COC2=O [Example 5, (R)-2-(11-(Bis(4-fluorophenyl)methyl)-5-methyl-6,7-dioxo-5,7,9,9a,10,11,12,13-octahydro-6H-pyrazino[2,1-c]pyrazino[2′,3′: 5,6]pyrido[4,3-e][1,4]oxazepin-2-yl)acetonitrile]
≤ 40	≤ 40	Cn1c(=O)c2c(c3nc(C#N)ccc31)N1CCN(C(c3ccc(F)cc3)c3ccc(F)cc3)C[C@H]1COC2=O [Example 6, (S)-11-(Bis(4-fluorophenyl)methyl)-5-methyl-6,7-dioxo-5,7,9,9a,10,11,12,13-octahydro-6H-pyrazino[2′,1′:3,4][1,4]oxazepino[6,5-c][1,5]naphthyridine-2-carbonitrile]
≤ 40	200 to 2000	C[C@@H]1CN2c3c(c(=O)n(C)c4ccc(C#N)nc34)C(=O)OC[C@H]2CN1C(c1ccc(F)cc1)c1ccc(F)cc1 [Example 7, (9aR,12R)-11-(Bis(4-fluorophenyl)methyl)-5,12-dimethyl-6,7-dioxo-5,7,9,9a,10,11,12,13-octahydro-6H-pyrazino[2′,1′:3,4][1,4]oxazepino[6,5-c][1,5]naphthyridine-2-carbonitrile]
–	40 to 200	Cn1c(=O)c2c(c3cc(CC#N)ccc31)N1CCN(C(c3ccc(F)cc3)c3ccc(F)cc3)C[C@@H]1COC2=O [Example 8, (R)-2-(3-(Bis(4-fluorophenyl)methyl)-9-methyl-7,8-dioxo-1,2,3,4,4a,5,8,9-octahydro-7H-pyrazino[2′,1′:3,4][1,4]oxazepino[6,5-c]quinolin-12-yl)acetonitrile]
≤ 40	> 2000	Cn1c(=O)c2c(c3ncc(C#N)cc31)N1CCN(C(c3ccc(F)cc3)c3ccc(F)cc3)C[C@@H]1COC2=O [Example 9, (R)-11-(Bis(4-fluorophenyl)methyl)-5-methyl-6,7-dioxo-5,7,9,9a,10,11,12,13-octahydro-6H-pyrazino[2′,1′:3,4][1,4]oxazepino[6,5-c][1,5]naphthyridine-3-carbonitrile]
–	> 2000	Cn1c(=O)c2c(c3ncc(CC#N)cc31)N1CCN(C(c3ccc(F)cc3)c3ccc(F)cc3)C[C@@H]1COC2=O [Example 10, (R)-2-(11-(Bis(4-fluorophenyl)methyl)-5-methyl-6,7-dioxo-5,7,9,9a,10,11,12,13-octahydro-6H-pyrazino[2′,1′:3,4][1,4]oxazepino[6,5-c][1,5]naphthyridin-3-yl)acetonitrile]
